In patent publication US7868147B2, “Fluorescent probe” (Sekisui Medical Co., Ltd., priority 2003, dated 2011):

Assays:
[1] = literature (Lindqvist et al., 1966); cited from earlier work
[2] = Maximum excitation and fluorescence wavelength of fluorescein derivatives; format: physicochemical; conditions: measured in 0.1 N aqueous NaOH
Description: (§1) Correlation between fluorescence quantum yield and the oxidation potential of the benzene ring moiety of each compound prepared above was studied. As clearly shown by the results in the figure, the fluorescence quantum yield of each compound changed depending on the oxidation potential of the benzene ring moiety. In an alkaline solution at pH 13, the OH group of the xanthene ring dissociates its proton to become an anion, and under this condition, the compound whose oxidation potential is 1.20V or lower became almost non-fluorescent, whereas the compound whose oxidation potential is 1.65V or higher emitted fluorescence with a quantum yield of almost 1. Between the two values, it was observed that the quantum yield decreases according to the decrease in the oxidation potential. An oxidation potential of the benzene ring under the acidic condition at pH 3.4, which has an influence on fluorescence, is different from that under a basic condition, i.e., the compound whose oxidation potential is 1.60V or lower is almost no fluorescent, whereas the compound whose oxidation potential is 1.90V or higher emitted fluorescence with a quantum yield of almost 0.3. It is known that the OH group of the xanthene ring is protonated at pH 3.4, and under this condition, the quantum yield of Fluorescein is about 0.3.

[3] = Oxidation potential of the benzene ring moiety (PET donor); format: physicochemical; conditions: 0.1 M acetonitrile containing tetrabutylammonium perchlorate (TBAP)
Description: For the selection of a combination of R^1 and R^2, information of the electron density of the benzene ring to which they bind may be utilized. Information of the electron density of the benzene ring is easily available, for example, by calculating oxidation potential of said benzene ring according to a quantum chemical means. A reduction of the oxidation potential of said benzene ring means an increase of the electron density of said benzene ring, which corresponds to an elevation of HOMO orbital energy. For example, HOMO energy of said benzene ring moiety can be determined by a density functional theory (B3LYP/6-31G(d)). All the oxidation potentials described in the specification are indicated as values obtained with a saturated calomel electrode as a reference electrode, of which base line is different by about 0.24 V from that used for values obtained with a silver/silver nitrate electrode (Ag/Ag^+) as a reference electrode.
as §1

[4] = Fluorescence quantum yield; format: physicochemical; conditions: for Φfl (pH 3.4): pH 3.4, xanthene OH protonated; for Φfl (pH 13): pH 13, xanthene OH deprotonated
Description: as §1

[5] = Fluorescence quantum yield; format: physicochemical; conditions: 100 mM sodium phosphate buffer

Row | Maximum excitation wavelength [2] | Maximum fluorescence wavelength [2] | Oxidation potential [3] | Φfl (pH 3.4) [4] | Φfl (pH 13) [4] | Φfl ([5]; pH 7.4) | Φfl ([5]; pH 9.0) | Structure (SMILES) | fluorescence quantum yield relative to fluorescein [1]
1 | 491 nm | 510 nm | 2.19 V vs SCE | 0.319 | 0.847 | – | – | Cc1ccccc1-c1c2ccc(=O)cc-2oc2cc(O)ccc12 [Compound 1] | –
2 | 491 nm | 510 nm | 2.08 V vs SCE | 0.307 | 0.865 | – | – | Cc1ccc(-c2c3ccc(=O)cc-3oc3cc(O)ccc23)c(C)c1 [Compound 2] | –
3 | 491 nm | 510 nm | 1.98 V vs SCE | 0.319 | 0.887 | – | – | Cc1ccc(C)c(-c2c3ccc(=O)cc-3oc3cc(O)ccc23)c1 [Compound 3] | –
4 | 492 nm | 509 nm | 1.66 V vs SCE | 0.010 | 0.840 | – | – | COc1ccc(-c2c3ccc(=O)cc-3oc3cc(O)ccc23)c(C)c1 [Compound 5] | –
5 | 494 nm | 514 nm | 1.57 V vs SCE | 0.004 | 0.500 | – | – | COc1ccc(C)cc1-c1c2ccc(=O)cc-2oc2cc(O)ccc12 [Compound 6] | –
6 | – | – | – | – | – | – | 0.87 | COC(=O)COc1ccc(-c2c3ccc(=O)cc-3oc3cc(O)ccc23)c(C)c1 [Compound 15] | –
7 | – | – | – | – | – | – | 0.82 | COC(=O)CCCCOc1ccc(-c2c3ccc(=O)cc-3oc3cc(O)ccc23)c(C)c1 [Compound 17] | –

The next lines start with the compound.

Row | Structure (SMILES) | Maximum excitation wavelength [2] | Maximum fluorescence wavelength [2] | Oxidation potential [3] | Φfl (pH 3.4) [4] | Φfl (pH 13) [4] | Φfl ([5]; pH 7.4) | Φfl ([5]; pH 9.0) | fluorescence quantum yield relative to fluorescein [1]
8 | O=c1ccc2c(-c3ccccc3)c3ccc(O)cc3oc-2c1 [6-Hydroxy-9-phenylfluorone] | – | – | – | – | – | – | – | lower fluorescence quantum yield
9 | COc1ccccc1-c1c2ccc(=O)cc-2oc2cc(O)ccc12 [Compound 4] | 494 nm | 515 nm | 1.75 V vs SCE | 0.076 | 0.860 | – | – | –
10 | COc1ccc(-c2c3ccc(=O)cc-3oc3cc(O)ccc23)c(OC)c1 [Compound 7] | 494 nm | 513 nm | 1.44 V vs SCE | 0.001 | 0.200 | – | – | –
11 | COc1ccc(OC)c(-c2c3ccc(=O)cc-3oc3cc(O)ccc23)c1 [Compound 8] | 494 nm | 512 nm | 1.26 V vs SCE | 0.000 | 0.010 | – | – | –
12 | COc1ccc(-c2c3ccc(=O)cc-3oc3cc(OP(=O)(O)O)ccc23)c(C)c1 [Compound 11] | – | – | – | – | – | 0.029 | – | –
13 | COC(=O)COc1ccc(-c2c3ccc(=O)cc-3oc3cc(O[C@@H]4OC(COC(C)=O)[C@H](OC(C)=O)C(OC(C)=O)C4OC(C)=O)ccc23)c(C)c1 (stereo partly shown) [Compound 16] | – | – | – | – | – | 0.069 | – | –
14 | COC(=O)CCCCOc1ccc(-c2c3ccc(=O)cc-3oc3cc(O[C@@H]4OC(COC(C)=O)[C@H](OC(C)=O)C(OC(C)=O)C4OC(C)=O)ccc23)c(C)c1 (stereo partly shown) [Compound 18] | – | – | – | – | – | 0.005 | – | –
